Laboratory results as given in BindingDB's records for doi:10.1074/jbc.270.11.6056 (Medical Research Council Centre, 1995).
Where a name gives a salt, the structure may show the parent alone.

What follows are compounds tested against T1, 5-hydroxytryptamine receptor 3A (Mus musculus, UniProt P23979).
T1 sequence (P23979 whole entry): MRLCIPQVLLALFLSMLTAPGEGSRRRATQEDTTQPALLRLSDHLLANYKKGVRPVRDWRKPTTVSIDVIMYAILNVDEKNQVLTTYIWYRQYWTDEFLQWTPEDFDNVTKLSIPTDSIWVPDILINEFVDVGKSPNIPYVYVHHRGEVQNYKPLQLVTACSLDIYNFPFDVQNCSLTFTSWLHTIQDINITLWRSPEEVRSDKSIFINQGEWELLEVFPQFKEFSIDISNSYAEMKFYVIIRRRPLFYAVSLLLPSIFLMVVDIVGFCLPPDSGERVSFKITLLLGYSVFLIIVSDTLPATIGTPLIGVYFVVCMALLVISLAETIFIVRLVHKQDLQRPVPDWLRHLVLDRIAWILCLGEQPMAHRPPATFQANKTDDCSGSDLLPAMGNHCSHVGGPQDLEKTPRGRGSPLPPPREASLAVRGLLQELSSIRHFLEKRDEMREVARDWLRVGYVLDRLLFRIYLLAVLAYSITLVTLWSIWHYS

Structure (SMILES) | Ki
N=C(N)NC(=N)Nc1cccc(Cl)c1 [1-(3-CHLOROPHENYL)BIGUANIDE HYDROCHLORIDE] | 0.94 nM
Cc1nc[nH]c1CCC(=O)c1cc2ccccc2n1C [CAS_124006] | 0.21 nM
CN1C2CCC1CC(OC(=O)c1cc(Cl)cc(Cl)c1)C2 (stereo not drawn) [MDL 72222] | 13 nM
